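Test compounds were applied to cells in 96-well plates for 48 hours at 5 doses. At the GI50, growth is halved. TGI: concentration producing complete growth inhibition.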
Assays:
Experiment in all cases: growth of human tumour cells (NCI), 48 h
EKVX NSCLC = test system: EKVX NSCLC
XF 498 CNS = test system: XF 498 CNS
DMS 114 small cell lung = test system: DMS 114 small cell lung
HOP-18 NSCLC = test system: HOP-18 NSCLC
DLD-1 colon = test system: DLD-1 colon
KM20L2 colon = test system: KM20L2 colon
HCT-15 colon = test system: HCT-15 colon
LXFL 529 NSCLC = test system: LXFL 529 NSCLC
SNB-19 CNS = test system: SNB-19 CNS
BT-549 breast = test system: BT-549 breast

Structure (SMILES)	TGI (EKVX NSCLC)	TGI (XF 498 CNS)	TGI (DMS 114 small cell lung)	TGI (HOP-18 NSCLC)	TGI (DLD-1 colon)	TGI (KM20L2 colon)	TGI (HCT-15 colon)	TGI (LXFL 529 NSCLC)	TGI (SNB-19 CNS)	TGI (BT-549 breast)	GI50 (EKVX NSCLC)	GI50 (XF 498 CNS)	GI50 (DMS 114 small cell lung)	GI50 (DLD-1 colon)	GI50 (KM20L2 colon)	GI50 (HCT-15 colon)	GI50 (LXFL 529 NSCLC)	GI50 (SNB-19 CNS)
CCCNCc1nc2ccc(Br)cc2c(=O)n1CCC	33.3 µM	30.9 µM	22.9 µM	32.1 µM	21.7 µM	34.3 µM	27.4 µM	25.1 µM	30.5 µM	–	–	–	–	–	–	–	–	–
N=C(N)SCCc1cn2ccccc2n1	> 100 µM	> 100 µM	> 100 µM	> 100 µM	> 100 µM	–	> 100 µM	–	> 100 µM	–	–	–	–	–	–	–	–	–
CC1=CC(C)(C)N=C2SC(c3ccc(Cl)cc3)=NN12	> 100 µM	51.8 µM	> 100 µM	80.5 µM	58.1 µM	> 100 µM	> 100 µM	> 100 µM	> 100 µM	–	–	–	–	–	–	–	–	–
O=C1CCCC/C1=C/C=C/c1ccccc1	–	> 100 µM	–	> 100 µM	> 100 µM	> 100 µM	–	> 100 µM	> 100 µM	–	–	–	–	–	–	–	–	–
CC(C)C(=O)N[C@@H](C)C(=O)N(Cc1ccc2ccccc2c1)N=O	> 100 µM	> 100 µM	> 100 µM	0.0979 µM	> 100 µM	> 100 µM	> 100 µM	> 100 µM	> 100 µM	–	–	–	–	–	–	–	–	–
CC1(O)CC2C(CC1SCCO)C2(C)C (stereo unspecified)	> 100 µM	> 100 µM	> 100 µM	> 100 µM	> 100 µM	–	> 100 µM	> 100 µM	–	–	–	–	–	–	–	–	–	–
O=Cc1ccc(-c2ccc(-c3ccc(C=O)s3)o2)s1	> 90 µM	–	> 100 µM	> 100 µM	> 100 µM	> 100 µM	> 100 µM	0.324 µM	> 100 µM	> 100 µM	–	–	–	–	–	–	–	–
Cc1ccccc1C(=O)Oc1ccc(Oc2ccccc2)cc1	> 100 µM	> 100 µM	> 100 µM	> 100 µM	> 100 µM	> 100 µM	> 100 µM	> 100 µM	> 100 µM	–	–	–	–	–	–	–	–	–
Nc1ccc(Nc2nc(F)nc(-c3c4ccccc4c4n3CCS4)n2)cc1	48.2 µM	20.3 µM	37.7 µM	33.9 µM	34.8 µM	33.5 µM	25.5 µM	31.1 µM	30.3 µM	–	–	–	–	–	–	–	–	–
Cc1ccc(C)c(NC(=O)c2cc(-c3ccc([N+](=O)[O-])cc3)nc(N)n2)c1	> 100 µM	> 100 µM	> 100 µM	> 100 µM	> 100 µM	> 100 µM	> 100 µM	> 100 µM	> 100 µM	–	–	–	–	–	–	–	–	–
CCOC(=O)/N=C(\N)SCc1ccccc1	> 100 µM	> 100 µM	> 100 µM	> 100 µM	> 100 µM	> 100 µM	> 100 µM	> 100 µM	> 100 µM	–	–	–	–	–	–	–	–	–
COc1ccc(C(c2ccc(C(C)C)cc(=O)c2O)c2c(O)cc3oc(-c4ccccc4)cc(=O)c3c2O)cc1 (stereo unspecified)	> 100 µM	37 µM	–	80.4 µM	> 100 µM	> 100 µM	43.6 µM	71.6 µM	16.7 µM	–	–	–	–	–	–	–	–	–
COc1cc(-c2[nH]ccc2Cl)oc1C1=C2N=C3C=C2C(C(C)C)C1CCCCCCCC3 (stereo unspecified)	3.51 µM	2.76 µM	1.87 µM	2.08 µM	2.6 µM	1.48 µM	1.86 µM	1.84 µM	5.92 µM	2.32 µM	–	–	–	–	–	–	–	–
C=C1CC(CCCl)(c2ccccc2)OC1=O (stereo unspecified)	> 63.1 µM	> 100 µM	> 63.2 µM	> 59.3 µM	42.5 µM	> 100 µM	39.2 µM	45.4 µM	> 100 µM	–	–	–	–	–	–	–	–	–
C(=C\c1csnn1)/c1cccnc1	> 100 µM	> 100 µM	> 100 µM	> 100 µM	> 100 µM	> 100 µM	> 100 µM	> 100 µM	> 100 µM	–	–	–	–	–	–	–	–	–
Cn1c(CCC#N)nc2ccc(Br)cc2c1=O	> 100 µM	> 100 µM	> 100 µM	–	> 100 µM	> 100 µM	> 100 µM	> 100 µM	–	–	–	–	–	–	–	–	–	–
O=c1/c(=C/c2ccc(Cl)cc2Cl)sc2nc3ccccc3n12	> 100 µM	> 100 µM	> 100 µM	> 100 µM	> 100 µM	> 100 µM	> 100 µM	> 100 µM	> 100 µM	–	–	–	–	–	–	–	–	–
O=C(CCC(=O)Nc1ccc(Cl)cc1)CC(=O)c1ccc(F)cc1	–	> 100 µM	–	–	> 100 µM	> 100 µM	> 100 µM	> 100 µM	> 100 µM	–	–	–	–	–	–	–	–	–
Cc1ccc(NC(=O)/C(CC(=O)c2c[n+](=O)c3ccccc3n2O)=N\NC(=O)C[n+]2ccccc2)cc1	> 100 µM	> 100 µM	> 100 µM	> 100 µM	> 100 µM	> 100 µM	> 100 µM	> 100 µM	> 100 µM	–	–	–	–	–	–	–	–	–
COc1ccc2c3c1C(=O)CCC3CO2 (stereo unspecified)	> 100 µM	> 100 µM	> 100 µM	–	> 100 µM	> 100 µM	> 100 µM	> 100 µM	> 100 µM	–	–	–	–	–	–	–	–	–
CC(=O)N1CC2Nc3ccccc3C2CC1CO (stereo unspecified)	> 100 µM	> 100 µM	> 100 µM	–	> 100 µM	> 100 µM	> 100 µM	> 100 µM	> 100 µM	–	–	–	–	–	–	–	–	–
O=c1ccccc2cccc(O)c12	> 100 µM	> 100 µM	> 100 µM	> 100 µM	> 100 µM	> 100 µM	> 100 µM	> 100 µM	> 100 µM	–	–	–	–	–	–	–	–	–
O=c1cc(Cl)nc[nH]1	> 100 µM	–	> 100 µM	> 100 µM	> 100 µM	> 100 µM	> 100 µM	> 100 µM	> 100 µM	–	–	–	–	–	–	–	–	–
O=C(OCCOCBr)c1ccccc1	> 100 µM	–	> 100 µM	> 100 µM	> 100 µM	> 100 µM	> 100 µM	> 100 µM	> 100 µM	–	–	–	–	–	–	–	–	–
Cc1cc(NS(=O)(=O)c2ccc(NC(=O)c3cccc4c(N)c5ccccc5nc34)cc2)no1	> 100 µM	55.5 µM	45.6 µM	–	> 100 µM	> 100 µM	> 100 µM	> 100 µM	34 µM	–	–	–	–	–	–	–	–	–
CN(C)CCn1c2ccccc2c2nc3cc4ccccc4cc3nc21	31.8 µM	21.4 µM	20.7 µM	–	16.5 µM	15.6 µM	18.7 µM	17.9 µM	27.7 µM	–	–	–	–	–	–	–	–	–
O=c1[nH]c(Br)nc2c(Br)c[nH]c12	> 100 µM	> 100 µM	> 100 µM	> 100 µM	> 100 µM	> 100 µM	> 100 µM	> 100 µM	> 100 µM	–	–	–	–	–	–	–	–	–
CCC[CH2][Sn]([CH2]CCC)([O]C(=O)c1cccc(F)c1)[O]C(=O)c1cccc(F)c1	2.96 µM	2.04 µM	1.63 µM	–	2.32 µM	2.91 µM	3.45 µM	0.664 µM	1.39 µM	–	1.3 µM	0.559 µM	0.376 µM	1.11 µM	1.47 µM	1.16 µM	0.228 µM	0.369 µM

— PubChem BioAssay (NCI)
